Values of other authors in patent publication US11058672B2, “Pharmaceutical compositions and methods for producing low impurity concentrations of the same” (Chiesi Farmaceutici S.p.A., priority 2008, dated 2021).

solubility in water: practically insoluble
SMILES: CCCC(=O)OCOC(=O)C1=C(C)NC(C)=C(C(=O)OC)C1c1cccc(Cl)c1Cl (stereo not shown) [Clevidipine, butyroxymethyl methyl 4-(2′,3′-dichlorophenyl)-1,4-dihydro-2,6-dimethyl-3,5-pyridinedicarboxylate]
